“Also recorded” adds a separate entry of the source. No end group written: not given here.
Tested on: RENCA tumors
Assay: Subcutaneous RENCA tumor growth in mice
Type: in vivo
Conditions: s.c. RENCA in Balb/C mice, i.p. treatment from day 10, vs saline
Description: Mice: Balb/C mice, 5-8 weeks old, were purchased from Jackson laboratory (Ellsworth, Maine) and housed under pathogen free conditions. All experiments involving animals followed federal and state standards, which include the federal Animal Welfare Act and the NIH guide for the care and use of laboratory animals. The RENCA tumors were generated by subcutaneously injecting 2×10^5 tumor cells into the frank. The day tumor cells were injected was considered day 0. PF (0.1 mmol), PC (0.1 mmol) or P60 (100 ug) was administered i.p. twice a week starting on day 10; αPD1 (200 μg) was administered i.p. twice a week starting on day 5; temsirolimus (15 μg) was administered i.p. every other day, starting on day 10. All drugs were administered throughout the experimental course unless indicated. CD8 cells were depleted with a one-time αCD8 (200 μg) i.p. administration on day 2.
In cancer, Tregs can suppress the antitumor immune response, which is primarily mediated by CD8+ lymphocytes. Therefore, PF was administered to mice to enhance antitumor immunity and suppress growth of syngeneic mouse kidney cancer, which is considered an immunoresponsive cancer type. Mice tumors were established by injecting RENCA cells subcutaneously in the flank of Balb/C mice (5-7 mice per group). RENCA cells were injected subcutaneously to establish palpable tumors, and 10 days later mice were treated i.p., twice a week throughout the experiment, with PF, PC, P60 or Saline (FIG. 3D). Pomalidomide conjugated to (PEG)4 (PROTAC-control; PC) and P60 served as controls. […] In summary, PF decreased the immunosuppressive function of Tregs in vitro and decreased tumor growth in mice. […]
All immunotherapies, particularly when multi-drug combinations are involved, may have off-target effects. For example, drugs may have direct effects on the tumor, inhibiting tumor proliferation or inducing tumor apoptosis. Mice tumors were established by injecting RENCA cell subcutaneously in the flank of Balb/C mice (6-8 mice per group). 10 days later, mice were treated with PF twice per week. CD8 lymphocytes were depleted with αCD8 administered i.p. 2 days after injection of tumor cells. Mice in indicated groups received i.p. αPD1, twice a week, starting day 5 (FIG. 5A). Mice in indicated groups received i.p. temsirolimus every other day for 14 days, starting on days 10 (FIG. 5B). Tumor growth was monitored in these groups. […]

Question: How did the “tumor growth, single agent” value turn out when `CO[C@H]1C[C@@H]2CC[C@@H](C)[C@@](O)(O2)C(=O)C(=O)N2CCCC[C@H]2C(=O)O[C@H]([C@H](C)C[C@@H]2CC[C@@H](OC(=O)C(C)(CO)CO)[C@H](OC)C2)CC(=O)[C@H](C)/C=C(\C)[C@@H](O)[C@@H](OC)C(=O)[C@H](C)C[C@H](C)/C=C/C=C/C=C/1C` [temsirolimus] was run?
Answer: Its value is “suppressed tumor growth”.

Question: With “RDFQSFRKMWPFFAM (not fully specified (some residues)) [P60]” as the molecule, how does the “tumor growth, single agent” value read?
Answer: The value was “Only PF produced a decrease in tumor growth; also recorded: no effect on RENCA tumor growth”.
